In one assay the target is T1, human 5-HT1F receptor (Homo sapiens, UniProt P30939).
T1 sequence (P30939 1-366): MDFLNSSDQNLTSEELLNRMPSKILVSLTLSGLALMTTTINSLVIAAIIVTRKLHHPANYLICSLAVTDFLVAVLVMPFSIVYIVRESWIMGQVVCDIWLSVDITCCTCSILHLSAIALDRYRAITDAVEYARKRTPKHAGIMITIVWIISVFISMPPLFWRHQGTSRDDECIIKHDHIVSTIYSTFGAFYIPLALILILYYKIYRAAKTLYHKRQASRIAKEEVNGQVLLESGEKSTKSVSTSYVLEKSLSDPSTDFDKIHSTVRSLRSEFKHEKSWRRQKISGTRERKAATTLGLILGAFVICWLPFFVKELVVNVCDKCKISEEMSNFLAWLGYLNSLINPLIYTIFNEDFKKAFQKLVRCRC
Particulars: cited from earlier work.

The target in another assay is human 5-HT1E receptor (Homo sapiens, UniProt P28566). Particulars: cited from earlier work.
In assay [1] the target is T2, human 5-HT4B receptor (Homo sapiens, UniProt P34969).
T2 construct: The entire coding region of the human 5-HT4B receptor (1338 bp); expressed in transfected cells
The experiment in a line: cell-based. The class given is cell-based.

Assay [2] addresses T2, human 5-HT4B receptor. The experiment in a line: cAMP formation in intact, transiently transfected Cos-7 cells. The class given is cell-based. Background: Changes in cAMP serve as a functional read-out for many G protein-coupled receptors.
The target in assay [3] is 5-HT receptor present in glial membranes. Particulars: Fillion et al., 1980; property shared with hp78a; read-out: equilibrium dissociation constant Kd; cited from earlier work.
In assay [4] the test system is 5-HT receptors on NCB20 cells. As to conditions: Berry-Kravis and Dawson, 1983; read-out: affinity of [3H]-5-HT; cited from earlier work.

The structures appear in SMILES notation.

T2 sequence (P34969 1-445 isoform P34969-2): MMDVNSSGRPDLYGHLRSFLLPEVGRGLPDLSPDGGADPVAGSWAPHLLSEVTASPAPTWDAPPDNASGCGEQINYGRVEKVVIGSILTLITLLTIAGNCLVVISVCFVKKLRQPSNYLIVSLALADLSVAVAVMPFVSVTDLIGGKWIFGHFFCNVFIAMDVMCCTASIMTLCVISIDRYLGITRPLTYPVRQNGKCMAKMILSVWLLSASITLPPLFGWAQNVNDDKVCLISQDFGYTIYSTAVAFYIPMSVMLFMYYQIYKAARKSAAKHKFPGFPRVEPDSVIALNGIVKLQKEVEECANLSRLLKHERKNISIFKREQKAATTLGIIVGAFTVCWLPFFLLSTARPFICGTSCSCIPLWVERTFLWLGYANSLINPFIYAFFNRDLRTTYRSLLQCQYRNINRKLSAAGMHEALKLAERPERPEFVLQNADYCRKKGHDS
Sequence of human 5-HT1E receptor (P28566 whole entry): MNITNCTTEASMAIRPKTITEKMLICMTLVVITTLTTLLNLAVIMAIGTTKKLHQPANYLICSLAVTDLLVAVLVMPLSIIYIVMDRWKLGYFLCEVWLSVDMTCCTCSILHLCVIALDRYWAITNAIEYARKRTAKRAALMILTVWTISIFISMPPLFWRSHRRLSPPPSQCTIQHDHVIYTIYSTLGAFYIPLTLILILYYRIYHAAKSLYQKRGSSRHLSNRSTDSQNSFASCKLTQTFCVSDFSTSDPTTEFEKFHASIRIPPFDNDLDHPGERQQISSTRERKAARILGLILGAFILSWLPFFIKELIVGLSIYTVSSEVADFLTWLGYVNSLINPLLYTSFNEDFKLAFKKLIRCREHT

For orientation: Ki means a dissociation constant, usually derived from enzyme kinetics or from competition with a known ligand. The term Emax denotes the maximal effect, on the per cent scale that the assay sets. As to `NCCc1c[nH]c2ccc(C(N)=O)cc12` [5-CT, 5-Carboxamidotryptamine], at human 5-HT1F receptor, the Ki is over 700 nM. The Ki on human 5-HT1E receptor is over 700 nM. In addition, on human 5-HT4B receptor [1], the “INTRINSIC ACTIVITY” value is recorded as “AGONIST (key: AGONIST indicates that the maximal response to the drug was at least 80% of the maximum response obtained with 5-HT)” and the “functional character” value is “potent agonists”. Further, the Emax at human 5-HT4B receptor [1] (L-M(TK-), read-out: Emax* (% 5-HT RESPONSE)) turned out to be 110 ± 19%. Besides, the “agonist activity” value at human 5-HT4B receptor [2] is listed as “potent agonists”.
For `NCCc1c[nH]c2ccc(O)cc12` [[^3H]5-HT], the values for the Kd in assay [3] and in assay [4] were 10 nM and about 200 nM, respectively.

Source of the values: patent US6432655B1, “Method of obtaining compositions” (Synaptic Pharmaceutical Corporation, priority 1992, dated 2002).
